Results taken from ChEMBL document CHEMBL1147054, “Structural basis of enantioselective inhibition of cyclooxygenase-1 by S-alpha-substituted indomethacin ethanolamides” (J Biol Chem, 2007).

Target: T1, Prostaglandin G/H synthase 1 (Ovis aries) (UniProt P05979)
T1 sequence (whole entry): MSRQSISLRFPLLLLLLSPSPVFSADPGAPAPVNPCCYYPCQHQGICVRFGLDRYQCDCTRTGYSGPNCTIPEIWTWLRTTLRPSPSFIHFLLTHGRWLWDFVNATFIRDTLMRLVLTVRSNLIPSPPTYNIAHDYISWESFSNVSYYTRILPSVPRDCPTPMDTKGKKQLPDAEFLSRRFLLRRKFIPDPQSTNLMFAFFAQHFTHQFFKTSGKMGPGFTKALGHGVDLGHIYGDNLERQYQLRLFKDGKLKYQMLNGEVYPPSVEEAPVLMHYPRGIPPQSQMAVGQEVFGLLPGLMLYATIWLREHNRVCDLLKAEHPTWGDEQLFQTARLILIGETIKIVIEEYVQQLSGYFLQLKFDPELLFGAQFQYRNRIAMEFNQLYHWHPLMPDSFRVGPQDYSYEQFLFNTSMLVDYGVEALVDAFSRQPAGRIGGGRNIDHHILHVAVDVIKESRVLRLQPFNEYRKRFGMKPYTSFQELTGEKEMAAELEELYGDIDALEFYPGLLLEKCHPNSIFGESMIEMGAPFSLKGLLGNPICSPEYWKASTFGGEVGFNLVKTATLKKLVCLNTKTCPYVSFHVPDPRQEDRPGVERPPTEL
Conditions: 1 uM
Description: Binding affinity to ovine COX1 at 1 uM to 25 uM

Structure (SMILES)	Kinact [µM]
CC[C@H](CO)NC(=O)Cc1c(C)n(C(=O)c2ccc(Cl)cc2)c2ccc(OC)cc12	2.3
CC[C@@H](CO)NC(=O)Cc1c(C)n(C(=O)c2ccc(Cl)cc2)c2ccc(OC)cc12	4
